Data reported in US20230181614A1, “ADMINISTRATION OF CITICOLINE TO IMPROVE COGNITIVE PERFORMANCE, ATTENTIONAL PERFORMANCE, AND MOTOR FUNCTION” (KYOWA HAKKO BIO CO., LTD., priority 2014, published 2023).

Assays:
[1] = system: Healthy subjects, ages 13-18; experiment: Rey-Osterreith Complex Figure Test (ROCFT) / Modified Taylor Complex Figure; type: in vivo, human; parameters: key: raw score: elements correctly recalled, accuracy and placement; settings: for ROCFT Copy Raw Score V1, Mean / ROCFT Delayed Raw Score V1, Mean / ROCFT Difference Raw Score V1, Mean / ROCFT Immediate Raw Score V1, Mean: Visit 1; for ROCFT V3-V1 Copy Raw Score, Mean / ROCFT V3-V1 Delayed Raw Score, Mean / ROCFT V3-V1 Difference Raw Score, Mean / ROCFT V3-V1 Immediate Raw Score, Mean: Visit difference score
Source text: Study participants were screened by telephone prior to study enrollment. Healthy subjects, ages 13-18, with no significant medical conditions and no history of co-morbid psychiatric disorder, current Axis I or II diagnosis, or previous participation in a pharmacotherapeutic trial, were selected. Use of any psychotropic medication or any previous head injury resulting in loss of consciousness for 5 or more minutes were used as exclusion criteria. While no participant met criteria for a neuropsychiatric disorder at enrollment, clinical assessments were still completed throughout the study to evaluate changes in mood state. In addition, self-reports of sleep habits, lifestyle, and exercise routines were also administered at baseline as well as at each study visit to assess changes in health habits during study participation. Following the completion of Visit 1 assessment, participants were given their 28-day supply of citicoline (250 mg or 500 mg) or placebo, which was randomly assigned. They were instructed to take one capsule a day every day for the next 28 days. Visit 2 occurred fourteen days after Visit 1. At Visit 2, the remaining study pills were counted and participant dosage calendars were checked to ensure compliance with the protocol. Additional neuropsychological measures and clinical assessments were administered during this visit. Participants returned for Visit 3 fourteen days later, on the 28th day of their study participation. The pill bottle and the dosage calendar were collected from each participant. Urine and blood were again obtained. Participants also participated in similar clinical and neuropsychological testing and clinical measures that were given during visit 1. The ROCFT is an assessment of visuo-organizational ability, visual attention, and visual memory. The participant is asked to copy a complex 2-dimensional figure with the stimulus or complex figure in front of them (Copy Trial), immediately after the stimulus has been removed (Short Delay Trial), and after 30 minutes without the stimulus present (Long Delay Trial). The figure produced at each trial is then evaluated for the strategy used in reproducing the figure, constructional accuracy, and placement of elements within the figure. The Copy, Short Delay, and Long Delay trials are each scored on the number of elements that have been correctly recalled and the accuracy and placement of each element. The Difference Score between immediate and delayed performance scores is a measure of temporary decay for visuospatial memory. This test was administered on both the first and the third visits. The Modified Taylor Complex Figure (MTCF) is an alternate form of the ROCFT to assess visuo-organizational ability, visual attention, and visual memory. The same procedure was used to administer the MTCF. The MTCF was administered at the second visit instead of the ROCFT to minimize the effect of repeat testing on copy and retention of the figure across visits.

[2] = system: Healthy subjects, ages 13-18; experiment: ADHD Rating Scale (ARS); type: in vivo, human; parameters: scale not given here
Source text: Study participants were screened by telephone prior to study enrollment. Healthy subjects, ages 13-18, with no significant medical conditions and no history of co-morbid psychiatric disorder, current Axis I or II diagnosis, or previous participation in a pharmacotherapeutic trial, were selected. Use of any psychotropic medication or any previous head injury resulting in loss of consciousness for 5 or more minutes were used as exclusion criteria. While no participant met criteria for a neuropsychiatric disorder at enrollment, clinical assessments were still completed throughout the study to evaluate changes in mood state. In addition, self-reports of sleep habits, lifestyle, and exercise routines were also administered at baseline as well as at each study visit to assess changes in health habits during study participation. Following the completion of Visit 1 assessment, participants were given their 28-day supply of citicoline (250 mg or 500 mg) or placebo, which was randomly assigned. They were instructed to take one capsule a day every day for the next 28 days. Visit 2 occurred fourteen days after Visit 1. At Visit 2, the remaining study pills were counted and participant dosage calendars were checked to ensure compliance with the protocol. Additional neuropsychological measures and clinical assessments were administered during this visit. Participants returned for Visit 3 fourteen days later, on the 28th day of their study participation. The pill bottle and the dosage calendar were collected from each participant. Urine and blood were again obtained. Participants also participated in similar clinical and neuropsychological testing and clinical measures that were given during visit 1. The ARS is a questionnaire assessing the frequency of DSM-IV-TR symptoms of ADHD in children including inattention, impulsivity, and hyperactivity. The scale was administered at each of the three visits to assess presence or absence of ADHD symptoms.

Q: Which “ROCFT Copy Raw Score V1, Mean” value ([1]; 250 mg/day group) does the source give for `C[N+](C)(C)CCOP(=O)(O)OP(=O)([O-])OC[C@H]1O[C@@H](n2ccc(N)nc2=O)[C@H](O)[C@@H]1O` [citicoline, Cytidine 5′-diphosphocholine] here?
A: 29.72

Q: What about the “ROCFT Delayed Raw Score V1, Mean” value ([1]; 250 mg/day group) of the same compound?
A: 21.63

Q: What about the “ROCFT Difference Raw Score V1, Mean” value ([1]; 250 mg/day group) of the same compound?
A: -0.24

Q: And the “ROCFT Immediate Raw Score V1, Mean” value ([1]; 250 mg/day group)?
A: 21.39

Q: What about the “ROCFT V3-V1 Copy Raw Score, Mean” value ([1]; 250 mg/day group) of the same compound?
A: 0.28

Q: And the “ROCFT V3-V1 Delayed Raw Score, Mean” value ([1]; 250 mg/day group)?
A: 3.80

Q: And the “ROCFT V3-V1 Difference Raw Score, Mean” value ([1]; 250 mg/day group)?
A: 1.35

Q: What about the “ROCFT V3-V1 Immediate Raw Score, Mean” value ([1]; 250 mg/day group) of the same compound?
A: 5.15

Q: And the “ROCFT Copy Raw Score V1, Mean” value ([1]; 500 mg/day group)?
A: 29.13

Q: And the “ROCFT Delayed Raw Score V1, Mean” value ([1]; 500 mg/day group)?
A: 19.00

Q: And the “ROCFT Difference Raw Score V1, Mean” value ([1]; 500 mg/day group)?
A: 0.44

Q: What about the “ROCFT Immediate Raw Score V1, Mean” value ([1]; 500 mg/day group) of the same compound?
A: 19.48

Q: What about the “ROCFT V3-V1 Copy Raw Score, Mean” value ([1]; 500 mg/day group) of the same compound?
A: 0.27

Q: And the “ROCFT V3-V1 Delayed Raw Score, Mean” value ([1]; 500 mg/day group)?
A: 5.31

Q: And the “ROCFT V3-V1 Difference Raw Score, Mean” value ([1]; 500 mg/day group)?
A: 0.13

Q: And the “ROCFT V3-V1 Immediate Raw Score, Mean” value ([1]; 500 mg/day group)?
A: 5.40

Q: What about the “ARS Impulsivity, Mean” value ([2]; 250 mg/day, V1 (baseline)) of the same compound?
A: 1.44

Q: And the “ARS Inattention, Mean” value ([2]; 250 mg/day, V1 (baseline))?
A: 1.30

Q: What about the “ARS Impulsivity, Mean” value ([2]; 250 mg/day, V3 (day 28)) of the same compound?
A: 0.85

Q: What about the “ARS Inattention, Mean” value ([2]; 250 mg/day, V3 (day 28)) of the same compound?
A: 1.56

Q: What about the “ARS Impulsivity, Mean” value ([2]; 250 mg/day, V3-V1) of the same compound?
A: -0.59

Q: And the “ARS Inattention, Mean” value ([2]; 250 mg/day, V3-V1)?
A: 0.26

Q: And the “ARS Impulsivity, Mean” value ([2]; 500 mg/day, V1 (baseline))?
A: 0.88

Q: What about the “ARS Inattention, Mean” value ([2]; 500 mg/day, V1 (baseline)) of the same compound?
A: 0.50

Q: What about the “ARS Impulsivity, Mean” value ([2]; 500 mg/day, V3 (day 28)) of the same compound?
A: 0.38

Q: And the “ARS Inattention, Mean” value ([2]; 500 mg/day, V3 (day 28))?
A: 0.38

Q: And the “ARS Inattention, Mean” value ([2]; 500 mg/day, V3-V1)?
A: -0.13
